Earlier results on one molecule are cited in patent US11484510B2, “Method to treat vitiligo” (APIRX PHAR[…], LLC, priority 2017, dated 2022).

One series addresses CB1 receptor (Homo sapiens, UniProt P21554).

CB1 receptor, sequence (P21554 whole entry): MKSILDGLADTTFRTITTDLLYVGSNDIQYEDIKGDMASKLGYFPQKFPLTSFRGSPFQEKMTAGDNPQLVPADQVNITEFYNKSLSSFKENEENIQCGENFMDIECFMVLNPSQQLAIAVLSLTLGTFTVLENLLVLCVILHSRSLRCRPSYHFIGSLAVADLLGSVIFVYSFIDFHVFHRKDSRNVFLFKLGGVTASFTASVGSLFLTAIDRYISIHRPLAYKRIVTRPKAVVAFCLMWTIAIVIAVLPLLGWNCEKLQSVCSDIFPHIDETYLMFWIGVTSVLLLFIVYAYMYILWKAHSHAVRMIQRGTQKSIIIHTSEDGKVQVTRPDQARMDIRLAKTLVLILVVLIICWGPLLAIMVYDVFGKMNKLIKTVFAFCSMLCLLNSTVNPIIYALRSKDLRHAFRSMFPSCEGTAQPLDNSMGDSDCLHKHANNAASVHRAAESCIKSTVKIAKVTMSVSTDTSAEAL

Turning to `CCCCCc1cc(O)c(C/C=C(\C)CCC=C(C)C)c(O)c1` [CBG, 2-[(2E)-3,7-dimethylocta-2,6-dienyl]-5-pentyl-benzene-1,3-diol], the “Affinity, α2-adrenergic receptor agonist” value in the series with α2-adrenergic receptor is “high affinity”. Moreover, in the series on 5-HT1A receptor, the “Affinity, 5-HT1A receptor antagonist” value is listed as “moderate affinity”. For the same molecule, on CB1 receptor, the “Affinity, CB1 receptor antagonist” value was “low affinity”.
